Experimental data taken from patent publication US12364709B2, “Bioavailable poly amines” (AMINEX THERAPEUTICS, INC., priority 2016, dated 2025).
Where “and” joins values, the source holds several entries; their conditions need not be identical. Equal entries are not always repeated.

Assays:
[1] = Pharmacokinetic analysis of AMXT 1501 salt forms, single oral tablet dose; format: in vivo, beagle dogs; settings: for Cmax / Tmax / half-life / AUC(0-t): beagle, dog, plasma, po
Excerpt: Following dose administration all the animals had serial blood collections. Table 18 provides pharmacokinetic data obtained using the various salt forms of AMXT 1501 following single PO dosing to dogs. In Table 18, Group 1 received the free base form of AMXT 1501, Group 2 received the dicholate salt of AMXT 1501, Group 3 received the phosphate salt form of AMXT 1501, and Group 4 received the dicaprate salt form of AMXT 1501. […] In Table 18, SD refers to standard deviation and CV % refers to coefficient of variability.

[2] = 5 day repeat oral dosing PK of AMXT 1501 dicaprate; format: in vivo, beagle dogs
Protocol: The pharmacokinetic (PK) profiles after dosing on Days 1 and 5 were evaluated using standard noncompartmental methods. The following experimental design was used. Beagle dogs, 1 or 2 males and 1 or 2 females for a total of 3 dogs per group, were randomly assigned to the four treatment groups as outlined in Table 19. AMXT 1501 dicaprate salt was administered in tablet form once daily for five days. […] Plasma samples were analyzed for AMXT 1501 concentration via a liquid chromatography/mass spectrometry (LC/MS-MS) procedure and the resulting concentration versus time data were used to estimate individual animal PK parameters using noncompartmental analysis (NCA).

[3] = single PO dose 16.0 mg/kg (2 x 80 mg tablets), plasma AMXT 1501, 16 mg/kg
[4] = single PO dose 16.0 mg/kg, plasma AMXT 1501, 16 mg/kg
[5] = single PO dose 16.0 mg/kg, t=24 hours, plasma AMXT 1501, 16 mg/kg
[6] = 8 mg/kg PO once daily, Day 5, individual animals
[7] = 8 mg/kg PO, Day 1, individual animals
[8] = 16 mg/kg PO once daily, Day 5, individual animals
[9] = 16 mg/kg PO, Day 1, individual animals
[10] = 32 mg/kg PO once daily, Day 5, individual animals
[11] = 32 mg/kg PO, Day 1, individual animals

Compound: CCCCCCCCCCCCCCCC(=O)NCCCC[C@@H](N)C(=O)NCCCNCCCCNCCCN [AMXT 1501 dicaprate]
- Cmax ([1]; 16 mg/kg, single PO dose 16.0 mg/kg (2 x 80 mg tablets), plasma AMXT 1501, read-out: Cmax Mean): 276 ng/mL
- Cmax ([1]; 16 mg/kg, single PO dose 16.0 mg/kg (2 x 80 mg tablets), plasma AMXT 1501, read-out: Cmax Median): 278 ng/mL
- Tmax ([1]; 16 mg/kg, single PO dose 16.0 mg/kg (2 x 80 mg tablets), plasma AMXT 1501, read-out: Tmax Mean): 6 h
- Tmax ([1]; 16 mg/kg, single PO dose 16.0 mg/kg (2 x 80 mg tablets), plasma AMXT 1501, read-out: Tmax Median): 6 h
- half-life ([1]; 16 mg/kg, single PO dose 16.0 mg/kg, plasma AMXT 1501, read-out: t1/2 Mean (converted)): 14 h
- half-life ([1]; 16 mg/kg, single PO dose 16.0 mg/kg, plasma AMXT 1501, read-out: t1/2 Median (converted)): 13.4 h
- AUC(0-t) ([1]; 16 mg/kg, single PO dose 16.0 mg/kg, t=24 hours, plasma AMXT 1501, read-out: AUC0-t Mean): 6580 ng·h/mL
- AUC(0-t) ([1]; 16 mg/kg, single PO dose 16.0 mg/kg, t=24 hours, plasma AMXT 1501, read-out: AUC0-t Median): 6370 ng·h/mL
- Cmax Max. [1, 3]: 349 ng/mL
- Cmax Min. [1, 3]: 201 ng/mL
- t1/2 Max. [1, 4]: 16.2 h
- t1/2 Min. [1, 4]: 12.4 h
- AUC0-t Max. [1, 5]: 8640 ng·h/mL
- AUC0-t Min. [1, 5]: 4710 ng·h/mL
- inter-animal consistency of plasma AMXT 1501 levels ([1]; single oral delivery, FIGS. 5A-5D): much more consistent inter-animal blood levels
- AUC(0-t) [2, 6]: 5620 ng·h/mL and 3100 ng·h/mL
- Cmax [2, 6]: 360 ng/mL and 254 ng/mL
- t1/2 [2, 6]: 7.82 h
- AUC(0-t) [2, 7]: 2050 ng·h/mL
- Cmax [2, 7]: 168 ng/mL
- AUC(0-t) [2, 8]: 11000 ng·h/mL
- Cmax [2, 8]: 454 ng/mL and 714 ng/mL
- Tmax [2, 8]: 12.0 h
- AUC(0-t) [2, 9]: 3190 ng·h/mL and 3300 ng·h/mL
- Cmax [2, 9]: 249 ng/mL
- t1/2 [2, 9]: 36.2 h and 10.3 h
- AUC(0-t) [2, 10]: 11000 ng·h/mL and 11100 ng·h/mL
- Cmax [2, 10]: 662 ng/mL and 708 ng/mL
- AUC(0-t) [2, 11]: 5830 ng·h/mL and 4900 ng·h/mL
- Cmax [2, 11]: 446 ng/mL and 333 ng/mL
- t1/2 [2, 11]: 27.1 h and 10.0 h
- half-life ([2]; both sexes, beagle, dog, plasma, oral, Day 1, animals where it could be estimated, read-out: mean Day 1 t1/2 values, range across groups): 7.99 to 23.2 h
- half-life at 5 days ([2]; both sexes, beagle, dog, plasma, oral, Day 5, animals where it could be estimated, read-out: mean Day 5 t1/2 values, range across groups): 8.69 to 20.8 h
- AUC(0-t) ([2]; both sexes, beagle, dog, plasma, po, 8 mg/kg, 8 mg/kg PO once daily, Day 5, group mean, read-out: AUC0-t Mean): 4750 ng·h/mL
- Cmax ([2]; both sexes, beagle, dog, plasma, po, 8 mg/kg, 8 mg/kg PO once daily, Day 5, group mean, read-out: Cmax Mean): 340 ng/mL
- Tmax ([2]; both sexes, beagle, dog, plasma, po, 8 mg/kg, 8 mg/kg PO once daily, Day 5, group mean, read-out: Tmax Mean): 5.33 h
- half-life ([2]; both sexes, beagle, dog, plasma, po, 8 mg/kg, 8 mg/kg PO once daily, Day 5, group mean, read-out: t1/2 Mean (converted)): 8.69 h
- AUC(0-t) ([2]; both sexes, beagle, dog, plasma, po, 8 mg/kg, 8 mg/kg PO once daily, Day 5, individual animals, read-out: AUC0-t): 5530 ng·h/mL
- Cmax ([2]; both sexes, beagle, dog, plasma, po, 8 mg/kg, 8 mg/kg PO once daily, Day 5, individual animals, read-out: Cmax): 405 ng/mL
- Tmax ([2]; both sexes, beagle, dog, plasma, po, 8 mg/kg, 8 mg/kg PO once daily, Day 5, individual animals, read-out: Tmax): 8 h
- half-life ([2]; both sexes, beagle, dog, plasma, po, 8 mg/kg, 8 mg/kg PO once daily, Day 5, individual animals, read-out: t1/2 (converted)): 9.55 h
- AUC(0-t) ([2]; both sexes, beagle, dog, plasma, po, 8 mg/kg, 8 mg/kg PO, Day 1, group mean, read-out: AUC0-t Mean): 2030 ng·h/mL
- Cmax ([2]; both sexes, beagle, dog, plasma, po, 8 mg/kg, 8 mg/kg PO, Day 1, group mean, read-out: Cmax Mean): 154 ng/mL
- Tmax ([2]; both sexes, beagle, dog, plasma, po, 8 mg/kg, 8 mg/kg PO, Day 1, group mean, read-out: Tmax Mean): 6 h
- half-life ([2]; both sexes, beagle, dog, plasma, po, 8 mg/kg, 8 mg/kg PO, Day 1, group mean, read-out: t1/2 Mean (converted)): 9.3 h
- AUC(0-t) ([2]; both sexes, beagle, dog, plasma, po, 8 mg/kg, 8 mg/kg PO, Day 1, individual animals, read-out: AUC0-t): 2010 ng·h/mL
- Cmax ([2]; both sexes, beagle, dog, plasma, po, 8 mg/kg, 8 mg/kg PO, Day 1, individual animals, read-out: Cmax): 139 ng/mL
- Tmax ([2]; both sexes, beagle, dog, plasma, po, 8 mg/kg, 8 mg/kg PO, Day 1, individual animals, read-out: Tmax): 8 h
- half-life ([2]; both sexes, beagle, dog, plasma, po, 8 mg/kg, 8 mg/kg PO, Day 1, individual animals, read-out: t1/2 (converted)): 9.3 h
- AUC(0-t) ([2]; both sexes, beagle, dog, plasma, po, 16 mg/kg, 16 mg/kg PO once daily, Day 5, group mean, read-out: AUC0-t Mean): 8890 ng·h/mL
- Cmax ([2]; both sexes, beagle, dog, plasma, po, 16 mg/kg, 16 mg/kg PO once daily, Day 5, group mean, read-out: Cmax Mean): 564 ng/mL
- Tmax ([2]; both sexes, beagle, dog, plasma, po, 16 mg/kg, 16 mg/kg PO once daily, Day 5, group mean, read-out: Tmax Mean): 8 h
- half-life ([2]; both sexes, beagle, dog, plasma, po, 16 mg/kg, 16 mg/kg PO once daily, Day 5, group mean, read-out: t1/2 Mean (converted)): 11.7 h
- AUC(0-t) ([2]; both sexes, beagle, dog, plasma, po, 16 mg/kg, 16 mg/kg PO once daily, Day 5, individual animals, read-out: AUC0-t): 9410 ng·h/mL
- Cmax ([2]; both sexes, beagle, dog, plasma, po, 16 mg/kg, 16 mg/kg PO once daily, Day 5, individual animals, read-out: Cmax): 523 ng/mL
- half-life ([2]; both sexes, beagle, dog, plasma, po, 16 mg/kg, 16 mg/kg PO once daily, Day 5, individual animals, read-out: t1/2 (converted)): 11.7 h
- AUC(0-t) ([2]; both sexes, beagle, dog, plasma, po, 16 mg/kg, 16 mg/kg PO, Day 1, group mean, read-out: AUC0-t Mean): 3450 ng·h/mL
- Cmax ([2]; both sexes, beagle, dog, plasma, po, 16 mg/kg, 16 mg/kg PO, Day 1, group mean, read-out: Cmax Mean): 238 ng/mL
- Tmax ([2]; both sexes, beagle, dog, plasma, po, 16 mg/kg, 16 mg/kg PO, Day 1, group mean, read-out: Tmax Mean): 5.33 h
- half-life ([2]; both sexes, beagle, dog, plasma, po, 16 mg/kg, 16 mg/kg PO, Day 1, group mean, read-out: t1/2 Mean (converted)): 23.2 h
- AUC(0-t) ([2]; both sexes, beagle, dog, plasma, po, 16 mg/kg, 16 mg/kg PO, Day 1, individual animals, read-out: AUC0-t): 3870 ng·h/mL
- Cmax ([2]; both sexes, beagle, dog, plasma, po, 16 mg/kg, 16 mg/kg PO, Day 1, individual animals, read-out: Cmax): 202 ng/mL
- Tmax ([2]; both sexes, beagle, dog, plasma, po, 16 mg/kg, 16 mg/kg PO, Day 1, individual animals, read-out: Tmax): 8 h
- AUC(0-t) ([2]; both sexes, beagle, dog, plasma, po, 32 mg/kg, 32 mg/kg PO once daily, Day 5, group mean, read-out: AUC0-t Mean): 13000 ng·h/mL
- Cmax ([2]; both sexes, beagle, dog, plasma, po, 32 mg/kg, 32 mg/kg PO once daily, Day 5, group mean, read-out: Cmax Mean): 837 ng/mL
- Tmax ([2]; both sexes, beagle, dog, plasma, po, 32 mg/kg, 32 mg/kg PO once daily, Day 5, group mean, read-out: Tmax Mean): 6.67 h
- half-life ([2]; both sexes, beagle, dog, plasma, po, 32 mg/kg, 32 mg/kg PO once daily, Day 5, group mean, read-out: t1/2 Mean (converted)): 10.7 h
- AUC(0-t) ([2]; both sexes, beagle, dog, plasma, po, 32 mg/kg, 32 mg/kg PO once daily, Day 5, individual animals, read-out: AUC0-t): 16800 ng·h/mL
- Cmax ([2]; both sexes, beagle, dog, plasma, po, 32 mg/kg, 32 mg/kg PO once daily, Day 5, individual animals, read-out: Cmax): 1140 ng/mL
- Tmax ([2]; both sexes, beagle, dog, plasma, po, 32 mg/kg, 32 mg/kg PO once daily, Day 5, individual animals, read-out: Tmax): 4 h
- half-life ([2]; both sexes, beagle, dog, plasma, po, 32 mg/kg, 32 mg/kg PO once daily, Day 5, individual animals, read-out: t1/2 (converted)): 10.7 h
- AUC(0-t) ([2]; both sexes, beagle, dog, plasma, po, 32 mg/kg, 32 mg/kg PO, Day 1, group mean, read-out: AUC0-t Mean): 5660 ng·h/mL
- Cmax ([2]; both sexes, beagle, dog, plasma, po, 32 mg/kg, 32 mg/kg PO, Day 1, group mean, read-out: Cmax Mean): 447 ng/mL
- Tmax ([2]; both sexes, beagle, dog, plasma, po, 32 mg/kg, 32 mg/kg PO, Day 1, group mean, read-out: Tmax Mean): 5.33 h
- half-life ([2]; both sexes, beagle, dog, plasma, po, 32 mg/kg, 32 mg/kg PO, Day 1, group mean, read-out: t1/2 Mean (converted)): 18.6 h
- AUC(0-t) ([2]; both sexes, beagle, dog, plasma, po, 32 mg/kg, 32 mg/kg PO, Day 1, individual animals, read-out: AUC0-t): 6250 ng·h/mL
- Cmax ([2]; both sexes, beagle, dog, plasma, po, 32 mg/kg, 32 mg/kg PO, Day 1, individual animals, read-out: Cmax): 563 ng/mL
- Tmax ([2]; both sexes, beagle, dog, plasma, po, 32 mg/kg, 32 mg/kg PO, Day 1, individual animals, read-out: Tmax): 8 h
- Tmax ([2]; both sexes, beagle, dog, plasma, po, 32 mg/kg, single or repeat once daily PO 8, 16, or 32 mg/kg, postdose, read-out: Tmax observed): 4 to 12 h
